What was measured:
[1] = test system: ALOMY; test: Pre-emergence action against ALOMY; assay type: in vivo, Alopecurus myosuroides; conditions: dosage 320 g/ha, pre-emergence, scored visually after 3 weeks vs untreated controls, 100% = plants have died, 0% = like control plants
Procedure, shortened: (§1)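 Seeds sown in sandy loam in wood-fiber pots and covered with soil. Greenhouse growth; visual damage scored after 3 weeks versus untreated controls (100% = dead, 0% = like control).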

[2] = test system: AVEFA; test: Pre-emergence action against AVEFA; assay type: in vivo, Avena fatua; conditions: dosage 320 g/ha, scored visually after 3 weeks vs untreated controls
Procedure, shortened: as §1

[3] = test system: CYPES; test: Pre-emergence action against CYPES; assay type: in vivo, Cyperus esculentus; conditions: pre-emergence, dosage 320 g/ha, scored visually after 3 weeks vs untreated controls
Procedure, shortened: as §1

[4] = test system: ECHCG; test: Pre-emergence action against ECHCG; assay type: in vivo, Echinochloa crus-galli; conditions: pre-emergence, dosage 320 g/ha, scored visually after 3 weeks vs untreated controls
Procedure, shortened: as §1

[5] = test system: LOLMU; test: Pre-emergence action against LOLMU; assay type: in vivo, Lolium multiflorum; conditions: dosage 320 g/ha, scored visually after 3 weeks vs untreated controls
Procedure, shortened: as §1

[6] = test system: SETVI; test: Pre-emergence action against SETVI; assay type: in vivo, Setaria viridis; conditions: pre-emergence, dosage 320 g/ha, scored visually after 3 weeks vs untreated controls
Procedure, shortened: as §1

[7] = test system: ABUTH; test: Pre-emergence action against ABUTH; assay type: in vivo, Abutilon theophrasti; conditions: pre-emergence, dosage 320 g/ha, scored visually after 3 weeks vs untreated controls
Procedure, shortened: as §1

[8] = test system: AMARE; test: Pre-emergence action against AMARE; assay type: in vivo, Amaranthus retroflexus; conditions: pre-emergence, dosage 320 g/ha, scored visually after 3 weeks vs untreated controls
Procedure, shortened: as §1

[9] = test system: MATIN; test: Pre-emergence action against MATIN; assay type: in vivo, Matricaria inodora; conditions: Dosage 320 g/ha, pre-emergence
Procedure, shortened: as §1

[10] = test system: PHBPU; test: Pre-emergence action against PHBPU; assay type: in vivo, Pharbitis purpurea; conditions: Dosage 320 g/ha, pre-emergence
Procedure, shortened: as §1

[11] = test system: STEME; test: Pre-emergence action against STEME; assay type: in vivo, Stellaria media; conditions: Dosage 320 g/ha, pre-emergence
Procedure, shortened: as §1

[12] = test system: VIOTR; test: Pre-emergence action against VIOTR; assay type: in vivo, Viola tricolor; conditions: Dosage 320 g/ha, pre-emergence
Procedure, shortened: as §1

[13] = test system: VERPE; test: Pre-emergence action against VERPE; assay type: in vivo, Veronica persica; conditions: Dosage 320 g/ha, pre-emergence
Procedure, shortened: as §1

[14] = test system: ALOMY; test: Post-emergence action against ALOMY; assay type: in vivo, Alopecurus myosuroides; conditions: Dosage 80 g/ha, post-emergence
Procedure, shortened: (§2)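 Weeds grown in sandy loam in greenhouse, treated at one-leaf stage (2–3 weeks after sowing) with WP or EC formulations sprayed as aqueous suspension/emulsion at 600 to […] water with 0.2% wetting agent. Visual rating after about 3 weeks versus untreated controls, as % herbicidal action (100% = plants dead, 0% = like control).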

[15] = test system: AVEFA; test: Post-emergence action against AVEFA; assay type: in vivo, Avena fatua; conditions: post-emergence, dosage 80 g/ha, visual assessment about 3 weeks after treatment vs untreated controls
Procedure, shortened: as §2

[16] = test system: ECHCG; test: Post-emergence action against ECHCG; assay type: in vivo, Echinochloa crus-galli; conditions: post-emergence, dosage 80 g/ha, visual assessment about 3 weeks after treatment vs untreated controls
Procedure, shortened: as §2

[17] = test system: LOLMU; test: Post-emergence action against LOLMU; assay type: in vivo, Lolium multiflorum; conditions: dosage 80 g/ha, visual assessment about 3 weeks after treatment vs untreated controls
Protocol: Seeds of monocotyledonous and dicotyledonous weed and crop plants are laid out in sandy loam soil in wood-fiber pots, covered with soil and cultivated in a greenhouse under good growth conditions. 2 to 3 weeks after sowing, the test plants are treated at the one-leaf stage. The compounds of the invention, formulated in the form of wettable powders (WP) or as emulsion concentrates (EC), are then sprayed onto the green parts of the plants in the form of an aqueous suspension or emulsion at a water application rate equating to […], with addition of 0.2% wetting agent. After the test plants have been left to stand in the greenhouse under optimal growth conditions for about 3 weeks, the action of the preparations is assessed visually in comparison to untreated controls (herbicidal action in percent (%): 100% activity=the plants have died, 0% activity=like control plants). […] At the same time, inventive compounds leave Gramineae crops such as barley, wheat, rye, millet/Sorghum, corn or rice virtually undamaged when applied post-emergence, even at high active ingredient dosages. In addition, some substances are also harmless to dicotyledonous crops such as soya, cotton, oilseed rape, sugar beet or potatoes. Some of the compounds according to the invention have high selectivity and are therefore suitable for controlling unwanted vegetation in agricultural crops by the post-emergence method. The data of Tables B18 to B34 below illustrate, in an exemplary manner, the […] herbicidal action of the compounds according to the invention, the herbicidal activity being stated in percent.

[18] = test system: SETVI; test: Post-emergence action against SETVI; assay type: in vivo, Setaria viridis; conditions: post-emergence, dosage 80 g/ha, visual assessment about 3 weeks after treatment vs untreated controls
Procedure, shortened: as §2

[19] = test system: ABUTH; test: Post-emergence action against ABUTH; assay type: in vivo, Abutilon theophrasti; conditions: post-emergence, dosage 80 g/ha, visual assessment about 3 weeks after treatment vs untreated controls
Procedure, shortened: as §2

[20] = test system: AMARE; test: Post-emergence action against AMARE; assay type: in vivo, Amaranthus retroflexus; conditions: post-emergence, dosage 80 g/ha, visual assessment about 3 weeks after treatment vs untreated controls
Procedure, shortened: as §2

[21] = test system: MATIN; test: Post-emergence action against MATIN; assay type: in vivo, Matricaria inodora; conditions: post-emergence, dosage 80 g/ha, visual assessment about 3 weeks after treatment vs untreated controls
Procedure, shortened: as §2

[22] = test system: PHBPU; test: Post-emergence action against PHBPU; assay type: in vivo, Pharbitis purpurea; conditions: post-emergence, dosage 80 g/ha
Procedure, shortened: as §2

[23] = test system: POLCO; test: Post-emergence action against POLCO; assay type: in vivo, Polygonum convolvulus; conditions: post-emergence, dosage 80 g/ha
Procedure, shortened: as §2

[24] = test system: VIOTR; test: Post-emergence action against VIOTR; assay type: in vivo, Viola tricolor; conditions: post-emergence, dosage 80 g/ha
Procedure, shortened: as §2

[25] = test system: VERPE; test: Post-emergence action against VERPE; assay type: in vivo, Veronica persica; conditions: dosage 80 g/ha
Procedure, shortened: as §2

[26] = test system: POLCO; test: Pre-emergence action against POLCO; assay type: in vivo, Polygonum convolvulus; conditions: Fallopia convolvulus, 504 h; Dosage 320 g/ha, pre-emergence
Procedure, shortened: as §1

[27] = test system: CYPES; test: Post-emergence action against CYPES; assay type: in vivo, Cyperus esculentus; conditions: Cyperus esculentus, 504 h; post-emergence, dosage 80 g/ha, visual assessment about 3 weeks after treatment vs untreated controls; read-out: Post-emergence action against CYPES (herbicidal action in percent)
Procedure, shortened: as §2

[28] = test system: STEME; test: Post-emergence action against STEME; assay type: in vivo, Stellaria media; conditions: Stellaria media, 504 h; post-emergence, dosage 80 g/ha
Procedure, shortened: as §2

For `CCn1nnnc1NC(=O)c1ccc(C(F)(F)F)c(C(=O)C2CC2)c1Cl` [2-141], the “Pre-emergence action against ALOMY (herbicidal activity in percent)” value [1] was 100%, the “Pre-emergence action against AVEFA (herbicidal activity)” value [2] was 100% and the “Pre-emergence action against CYPES (herbicidal activity)” value [3] was 90%. For the same compound, the “Pre-emergence action against ECHCG (herbicidal activity)” value [4] was 100%, the “Pre-emergence action against LOLMU (herbicidal activity)” value [5] was 100% and the “SETVI (Table B8, pre-emergence herbicidal activity)” value [6] was 100%. The “Pre-emergence action against ABUTH (herbicidal activity)” value [7] was 100%, the “Pre-emergence action against AMARE (herbicidal activity)” value [8] was 100% and the “Pre-emergence action against MATIN” value [9] was 100%. The “Pre-emergence action against PHBPU” value [10] was 80%, the “Pre-emergence action against STEME” value [11] was 90% and the “Pre-emergence action against VIOTR” value [12] was 100%. For the same compound, the “Pre-emergence action against VERPE” value [13] was 100%, the “Post-emergence action against ALOMY” value [14] was 90% and the “Post-emergence action against AVEFA (herbicidal action in percent)” value [15] was 90%. The “Post-emergence action against ECHCG (herbicidal action in percent)” value [16] was 90%, the “Post-emergence action against LOLMU (herbicidal action in percent)” value [17] was 90% and the “Post-emergence action against SETVI (herbicidal action in percent)” value [18] was 90%. For the same compound, the “Post-emergence action against ABUTH (herbicidal action in percent)” value [19] was 90%, the “Post-emergence action against AMARE (herbicidal action in percent)” value [20] was 90% and the “Post-emergence action against MATIN (herbicidal action in percent)” value [21] was 80%. The “Post-emergence action against PHBPU” value [22] was 90, the “Post-emergence action against POLCO” value [23] was 90 and the “Post-emergence action against VIOTR” value [24] was 100. For the same compound, the “Post-emergence action against VERPE” value [25] was 80.

Work on `CCC(=O)c1c(Cl)ccc(C(=O)Nc2nnnn2C)c1Cl` [1-115] yielded a pest or weed control at 320 g/ha ([1]; Alopecurus myosuroides, 504 h, read-out: Pre-emergence action against ALOMY (herbicidal activity in percent)) of 100%, a pest or weed control at 320 g/ha ([2]; Avena fatua, 504 h, read-out: Pre-emergence action against AVEFA (herbicidal activity)) of 100% and a pest or weed control at 320 g/ha ([3]; Cyperus esculentus, 504 h, read-out: Pre-emergence action against CYPES (herbicidal activity)) of 100%. The pest or weed control at 320 g/ha ([4]; Echinochloa crus-galli, 504 h, read-out: Pre-emergence action against ECHCG (herbicidal activity)) was 100%, the pest or weed control at 320 g/ha ([5]; Lolium multiflorum, 504 h, read-out: Pre-emergence action against LOLMU (herbicidal activity)) was 100% and the pest or weed control at 320 g/ha ([6]; Setaria viridis, 504 h, read-out: SETVI (Table B8, pre-emergence herbicidal activity)) was 90%. It also gave a pest or weed control at 320 g/ha ([7]; Abutilon theophrasti, 504 h, read-out: Pre-emergence action against ABUTH (herbicidal activity)) of 100%, a pest or weed control at 320 g/ha ([8]; Amaranthus retroflexus, 504 h, read-out: Pre-emergence action against AMARE (herbicidal activity)) of 100% and a pest or weed control at 320 g/ha ([9]; Tripleurospermum inodorum, 504 h) of 100%. The pest or weed control at 320 g/ha ([10]; Ipomoea purpurea, 504 h) was 90%, the pest or weed control at 320 g/ha [26] was 80% and the pest or weed control at 320 g/ha ([11]; Stellaria media, 504 h) was 100%. The pest or weed control at 320 g/ha ([13]; Veronica persica, 504 h) was 100%, the pest or weed control at 80 g/ha ([14]; Alopecurus myosuroides, 504 h) was 90% and the pest or weed control at 80 g/ha [27] was 90%. For the same compound, the pest or weed control at 80 g/ha ([16]; Echinochloa crus-galli, 504 h, read-out: Post-emergence action against ECHCG (herbicidal action in percent)) was 90%, the pest or weed control at 80 g/ha ([17]; Lolium multiflorum, 504 h, read-out: Post-emergence action against LOLMU (herbicidal action in percent)) was 90% and the pest or weed control at 80 g/ha ([18]; Setaria viridis, 504 h, read-out: Post-emergence action against SETVI (herbicidal action in percent)) was 90%. The pest or weed control at 80 g/ha ([19]; Abutilon theophrasti, 504 h, read-out: Post-emergence action against ABUTH (herbicidal action in percent)) was 90%, the pest or weed control at 80 g/ha ([20]; Amaranthus retroflexus, 504 h, read-out: Post-emergence action against AMARE (herbicidal action in percent)) was 90% and the pest or weed control at 80 g/ha ([21]; Tripleurospermum inodorum, 504 h, read-out: Post-emergence action against MATIN (herbicidal action in percent)) was 100%. The pest or weed control at 80 g/ha ([22]; Ipomoea purpurea, 504 h) was 90%, the pest or weed control at 80 g/ha ([23]; Fallopia convolvulus, 504 h) was 100% and the pest or weed control at 80 g/ha [28] was 100%. The pest or weed control at 80 g/ha ([24]; Viola tricolor, 504 h) was 100% and the pest or weed control at 80 g/ha ([25]; Veronica persica, 504 h) was 100%.
